Literature values, collected in patent publication US11224632B2 (priority 2016, dated 2022).

Molecular target: N-type calcium channel (Homo sapiens, UniProt Q00975)
Details: in vivo; cited from earlier work

N-type calcium channel, sequence (Q00975 whole entry, looked up): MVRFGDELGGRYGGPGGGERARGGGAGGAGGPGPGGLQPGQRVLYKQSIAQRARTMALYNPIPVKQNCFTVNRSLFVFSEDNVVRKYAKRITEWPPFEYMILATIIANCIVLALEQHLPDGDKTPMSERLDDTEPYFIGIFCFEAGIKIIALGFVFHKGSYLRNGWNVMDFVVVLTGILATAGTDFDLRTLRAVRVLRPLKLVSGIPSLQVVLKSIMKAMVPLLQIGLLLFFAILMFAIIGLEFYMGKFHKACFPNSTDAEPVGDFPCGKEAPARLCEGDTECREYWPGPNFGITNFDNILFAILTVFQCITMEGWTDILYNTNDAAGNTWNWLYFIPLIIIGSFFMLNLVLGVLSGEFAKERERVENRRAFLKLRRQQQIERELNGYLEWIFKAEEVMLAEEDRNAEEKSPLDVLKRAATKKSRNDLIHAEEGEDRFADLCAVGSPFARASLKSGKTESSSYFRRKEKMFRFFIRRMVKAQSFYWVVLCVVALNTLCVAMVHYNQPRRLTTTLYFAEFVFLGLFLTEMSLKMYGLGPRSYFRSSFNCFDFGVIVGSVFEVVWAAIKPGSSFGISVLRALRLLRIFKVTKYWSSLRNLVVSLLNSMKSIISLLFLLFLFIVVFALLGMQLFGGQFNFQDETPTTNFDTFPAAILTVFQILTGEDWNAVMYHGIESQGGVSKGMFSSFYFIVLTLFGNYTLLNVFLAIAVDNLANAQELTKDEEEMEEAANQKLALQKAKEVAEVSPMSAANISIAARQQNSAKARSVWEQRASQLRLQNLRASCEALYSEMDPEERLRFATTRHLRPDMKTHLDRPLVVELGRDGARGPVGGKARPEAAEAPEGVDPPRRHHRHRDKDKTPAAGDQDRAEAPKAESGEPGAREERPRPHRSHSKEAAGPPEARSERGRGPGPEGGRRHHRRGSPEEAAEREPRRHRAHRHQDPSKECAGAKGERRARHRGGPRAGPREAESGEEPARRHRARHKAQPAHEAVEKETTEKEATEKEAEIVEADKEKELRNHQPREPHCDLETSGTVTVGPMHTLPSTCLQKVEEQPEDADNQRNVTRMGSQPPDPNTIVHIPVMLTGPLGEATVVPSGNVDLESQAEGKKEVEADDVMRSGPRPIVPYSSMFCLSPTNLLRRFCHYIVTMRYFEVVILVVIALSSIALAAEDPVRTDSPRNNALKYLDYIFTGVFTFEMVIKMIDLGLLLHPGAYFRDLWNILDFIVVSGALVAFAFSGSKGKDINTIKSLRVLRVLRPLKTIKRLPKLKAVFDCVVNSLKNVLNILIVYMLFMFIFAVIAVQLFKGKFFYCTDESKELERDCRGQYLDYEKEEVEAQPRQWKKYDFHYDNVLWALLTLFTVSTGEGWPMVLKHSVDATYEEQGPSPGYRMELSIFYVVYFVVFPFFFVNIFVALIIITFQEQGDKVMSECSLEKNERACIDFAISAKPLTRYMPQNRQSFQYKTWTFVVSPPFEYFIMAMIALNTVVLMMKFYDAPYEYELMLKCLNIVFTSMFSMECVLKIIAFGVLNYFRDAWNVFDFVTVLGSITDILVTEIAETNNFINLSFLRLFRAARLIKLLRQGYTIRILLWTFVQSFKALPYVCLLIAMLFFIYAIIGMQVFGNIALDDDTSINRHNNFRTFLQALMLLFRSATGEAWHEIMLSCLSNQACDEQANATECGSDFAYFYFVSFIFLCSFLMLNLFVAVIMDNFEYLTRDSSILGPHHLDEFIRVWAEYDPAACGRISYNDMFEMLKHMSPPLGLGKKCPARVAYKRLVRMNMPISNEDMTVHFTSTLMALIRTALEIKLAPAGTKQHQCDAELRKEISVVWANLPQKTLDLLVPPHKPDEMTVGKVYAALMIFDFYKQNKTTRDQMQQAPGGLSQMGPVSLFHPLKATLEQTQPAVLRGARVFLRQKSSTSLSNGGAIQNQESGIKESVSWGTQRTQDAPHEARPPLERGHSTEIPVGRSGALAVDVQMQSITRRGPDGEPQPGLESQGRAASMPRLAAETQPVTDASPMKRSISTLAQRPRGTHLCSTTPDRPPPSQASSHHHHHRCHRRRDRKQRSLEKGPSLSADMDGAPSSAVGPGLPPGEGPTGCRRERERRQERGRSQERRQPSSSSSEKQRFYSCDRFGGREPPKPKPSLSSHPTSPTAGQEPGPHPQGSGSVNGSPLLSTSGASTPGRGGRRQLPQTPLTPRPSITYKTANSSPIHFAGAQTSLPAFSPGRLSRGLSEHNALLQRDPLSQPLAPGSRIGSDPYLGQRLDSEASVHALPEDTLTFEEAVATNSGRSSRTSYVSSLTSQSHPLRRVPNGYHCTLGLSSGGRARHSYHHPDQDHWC

## CSCC[C@@H]1NC(=O)[C@H](CC(C)C)NC(=O)[C@H](CCCNC(=N)N)NC(=O)[C@H](CO)NC(=O)[C@@H]2CSSC[C@@H]3NC(=O)[C@H](CO)NC(=O)CNC(=O)[C@H]([C@@H](C)O)NC(=O)[C@H](CSSC[C@H](N)C(=O)N[C@@H](CCCCN)C(=O)NCC(=O)N[C@@H](CCCCN)C(=O)NCC(=O)N[C@@H](C)C(=O)N[C@@H](CCCCN)C(=O)N2)NC(=O)[C@H](CSSC[C@@H](C(N)=O)NC(=O)[C@H](CCCCN)NC(=O)CNC(=O)[C@H](CO)NC(=O)[C@H](CCCNC(=N)N)NC3=O)NC(=O)[C@H](CC(=O)O)NC(=O)[C@H](Cc2ccc(O)cc2)NC1=O [ziconotide]
  patients with severe CNS adverse effects: 88%
